Results: patent publication US20070282007A1, “TREATMENT OF PAIN DISORDERS WITH trans 4-(3,4-DICHLOROPHENYL)-1,2,3,4-TETRAHYDRO-1-NAPHTHALENAMINE AND ITS FORMAMIDE” (SEPRACOR INC., priority 2006, published 2007)

Assays:
NE transporter = target: T1, NE transporter (Homo sapiens, UniProt P23975); test: Radioligand binding assay, NE transporter ([3H]nisoxetine displacement); conditions: human recombinant; [3H]nisoxetine 0.3 nM; read-out: Ki, Norepinephrine (NE) transporter
T1 construct: expressed in transfected cells
T1 sequence (P23975 whole entry): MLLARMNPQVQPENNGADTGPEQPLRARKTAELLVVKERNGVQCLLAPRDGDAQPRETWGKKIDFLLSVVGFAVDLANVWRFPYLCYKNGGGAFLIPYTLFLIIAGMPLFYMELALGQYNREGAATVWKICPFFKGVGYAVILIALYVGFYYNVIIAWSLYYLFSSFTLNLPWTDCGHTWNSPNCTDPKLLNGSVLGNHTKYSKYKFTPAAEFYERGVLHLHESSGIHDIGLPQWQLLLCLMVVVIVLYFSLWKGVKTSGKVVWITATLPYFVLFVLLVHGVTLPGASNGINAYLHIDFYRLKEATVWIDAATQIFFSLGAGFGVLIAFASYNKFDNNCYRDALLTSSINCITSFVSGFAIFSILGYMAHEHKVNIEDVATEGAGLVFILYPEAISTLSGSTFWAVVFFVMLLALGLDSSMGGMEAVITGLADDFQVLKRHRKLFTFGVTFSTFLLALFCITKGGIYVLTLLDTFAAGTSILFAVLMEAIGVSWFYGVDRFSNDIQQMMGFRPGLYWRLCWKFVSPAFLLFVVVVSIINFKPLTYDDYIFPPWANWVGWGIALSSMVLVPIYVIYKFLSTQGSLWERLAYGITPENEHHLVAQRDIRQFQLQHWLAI
Method: (§1) The assays measured the affinity of the two compounds for transporters of the monoamines 5-HT, NE and DA. […] The transporters were human recombinant proteins expressed in mammalian cells. Binding to the 5-HT transporter was assessed by evaluating displacement of [^3H]paroxetine (0.1 nM). […] Binding to the NE transporter was assessed by evaluating displacement of [^3H]nisoxetine (0.3 nM).

[1] = target: T2, recombinant human Norepinephrine (NE) transporter (Homo sapiens, UniProt P23975); test: Functional uptake of NE into cells expressing recombinant human transporters; type: cell-based; conditions: read-out: IC50 inhibition of functional uptake in human transporters, Norepinephrine (NE)
T2 construct: expressed in transfected cells
T2 sequence (P23975 whole entry): as above

rats [2] = test: Formalin test, second test with Automated Nociception Analyzer; type: in vivo, rat; conditions: automated detection; for Number of Flinches, Acute Phase (Mean ± SEM): 0-10 minutes after formalin; for Number of Flinches, Late Phase (Mean ± SEM): 10-60 minutes after formalin
Method: In a second test, flinching behaviors were measured for 90 minutes after formalin injection using an automated detection system. […] This device used a magnetic detection system to measure paw movements, called “flinches”. Small metal bands were attached to the left hind paw of rats just before placement into individual circular test chambers 30 minutes prior to formalin injection. […] In addition to duloxetine, morphine (6 mg/kg, subcutaneously) was used as a comparator substance. Animals were treated with morphine 30 minutes prior to the formalin injection. To initiate the experiment, the rats were injected with formalin subcutaneously on the dorsal surface of the left hind paw and placed in the test chambers. The instrument subsequently recorded rapid foot movements counted in one minute epochs.

[3] = target: Ca^2+ Channel Verapamil Site; test: In vitro radioligand binding assay, Ca2+ channel verapamil site
5-HT2A = 5-HT2A (Homo sapiens, UniProt P28223); test: In vitro radioligand binding assay, 5-HT2A
5-HT1A = target: T3, 5-HT1A (Homo sapiens, UniProt P08908); test: In vitro radioligand binding assay, 5-HT1A
T3 sequence (P08908 1-422): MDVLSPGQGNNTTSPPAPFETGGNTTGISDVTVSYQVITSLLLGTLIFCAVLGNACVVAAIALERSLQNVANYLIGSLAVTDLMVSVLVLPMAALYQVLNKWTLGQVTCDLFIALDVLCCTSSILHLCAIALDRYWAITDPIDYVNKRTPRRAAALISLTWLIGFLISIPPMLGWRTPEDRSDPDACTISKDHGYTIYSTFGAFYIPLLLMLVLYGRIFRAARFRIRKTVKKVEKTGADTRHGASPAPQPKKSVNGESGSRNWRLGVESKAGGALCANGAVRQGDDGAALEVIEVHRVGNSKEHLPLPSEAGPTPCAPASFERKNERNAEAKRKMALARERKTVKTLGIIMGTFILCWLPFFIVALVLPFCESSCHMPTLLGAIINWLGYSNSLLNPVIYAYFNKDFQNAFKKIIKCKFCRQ

[4] = target: T4, recombinant human Dopamine (DA) transporter (Homo sapiens, UniProt Q01959); test: Functional uptake of DA into cells expressing recombinant human transporters; type: cell-based; conditions: read-out: IC50 inhibition of functional uptake in human transporters, Dopamine (DA)
T4 construct: expressed in transfected cells

5-HT2C = 5-HT2C (Homo sapiens, UniProt P28335); test: In vitro radioligand binding assay, 5-HT2C
5-HT2C, sequence (P28335 33-458, species assumed): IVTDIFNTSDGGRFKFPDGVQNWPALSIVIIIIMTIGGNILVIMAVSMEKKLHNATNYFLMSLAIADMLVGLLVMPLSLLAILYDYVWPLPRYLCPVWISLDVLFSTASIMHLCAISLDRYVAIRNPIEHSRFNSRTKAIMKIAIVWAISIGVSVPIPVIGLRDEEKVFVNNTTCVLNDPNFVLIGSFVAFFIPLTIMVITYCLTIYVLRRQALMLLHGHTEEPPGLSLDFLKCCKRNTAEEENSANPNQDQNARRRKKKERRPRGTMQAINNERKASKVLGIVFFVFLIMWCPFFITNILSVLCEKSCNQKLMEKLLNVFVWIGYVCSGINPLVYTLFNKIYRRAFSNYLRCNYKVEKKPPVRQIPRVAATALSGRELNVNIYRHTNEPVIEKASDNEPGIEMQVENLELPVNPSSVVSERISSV

5-HT1B = 5-HT1B (Homo sapiens, UniProt P28222); test: In vitro radioligand binding assay, 5-HT1B
5-HT1B, sequence (P28222 whole entry, species assumed): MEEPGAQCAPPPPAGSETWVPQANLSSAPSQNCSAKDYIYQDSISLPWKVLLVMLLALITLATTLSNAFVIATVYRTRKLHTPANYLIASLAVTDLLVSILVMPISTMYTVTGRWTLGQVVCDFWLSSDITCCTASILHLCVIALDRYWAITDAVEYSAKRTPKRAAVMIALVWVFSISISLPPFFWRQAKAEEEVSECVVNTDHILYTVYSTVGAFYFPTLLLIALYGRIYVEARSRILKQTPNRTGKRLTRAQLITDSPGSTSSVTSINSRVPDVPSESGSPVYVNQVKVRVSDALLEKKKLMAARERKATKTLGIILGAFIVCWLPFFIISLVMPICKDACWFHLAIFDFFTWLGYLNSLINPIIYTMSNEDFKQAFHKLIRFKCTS

hERG channel = hERG channel (Homo sapiens, UniProt Q12809); test: hERG channel current in stably transfected HEK293 cells
hERG channel, sequence (Q12809 whole entry): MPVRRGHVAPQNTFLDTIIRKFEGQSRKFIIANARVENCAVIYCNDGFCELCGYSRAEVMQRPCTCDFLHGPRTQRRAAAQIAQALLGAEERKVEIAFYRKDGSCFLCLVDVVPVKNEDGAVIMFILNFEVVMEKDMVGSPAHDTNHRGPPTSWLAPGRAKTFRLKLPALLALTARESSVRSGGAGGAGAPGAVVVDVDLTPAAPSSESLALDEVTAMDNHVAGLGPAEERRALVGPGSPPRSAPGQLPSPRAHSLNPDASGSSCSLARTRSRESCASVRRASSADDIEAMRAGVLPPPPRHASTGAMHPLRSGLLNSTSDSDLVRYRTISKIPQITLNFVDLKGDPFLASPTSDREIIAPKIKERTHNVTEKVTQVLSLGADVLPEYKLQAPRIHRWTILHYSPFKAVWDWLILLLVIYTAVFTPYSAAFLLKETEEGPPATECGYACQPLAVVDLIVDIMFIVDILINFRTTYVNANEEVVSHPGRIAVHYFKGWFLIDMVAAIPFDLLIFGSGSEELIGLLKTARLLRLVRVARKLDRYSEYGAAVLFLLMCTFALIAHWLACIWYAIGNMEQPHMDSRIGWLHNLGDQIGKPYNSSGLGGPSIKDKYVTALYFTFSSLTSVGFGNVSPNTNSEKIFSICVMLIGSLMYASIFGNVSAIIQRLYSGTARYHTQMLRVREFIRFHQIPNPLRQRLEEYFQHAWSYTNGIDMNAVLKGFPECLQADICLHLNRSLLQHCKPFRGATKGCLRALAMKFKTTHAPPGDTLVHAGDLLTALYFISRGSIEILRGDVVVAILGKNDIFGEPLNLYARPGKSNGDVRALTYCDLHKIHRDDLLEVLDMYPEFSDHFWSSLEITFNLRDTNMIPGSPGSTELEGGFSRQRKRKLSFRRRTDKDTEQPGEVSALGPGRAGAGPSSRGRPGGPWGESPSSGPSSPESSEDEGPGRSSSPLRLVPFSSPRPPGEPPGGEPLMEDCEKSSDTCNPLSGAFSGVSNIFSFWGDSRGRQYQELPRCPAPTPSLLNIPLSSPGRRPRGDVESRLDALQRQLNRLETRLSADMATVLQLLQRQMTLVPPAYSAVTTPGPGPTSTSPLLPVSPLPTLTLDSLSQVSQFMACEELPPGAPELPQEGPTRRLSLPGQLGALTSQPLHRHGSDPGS
Method: Studies were conducted to determine effects on IKr, the rapidly activating delayed rectifier cardiac potassium current in the human heart. […] In this assay system, HERG channel current serves as a surrogate for IKr.

rats [5] = test: Formalin paw test in the rat (late phase), flinches counted; type: in vivo
Method: Rats were given an intraplantar injection of 5% formalin (50 μl) into the posterior left paw. […] The number of flinches was counted for 15 minutes, beginning 20 minutes after injection of formalin. Eight rats were studied per group. The test was performed blind. […] Data were analyzed by comparing treated groups with vehicle control using unpaired Mann-Whitney U tests.

M2 = M2 (Homo sapiens, UniProt P08172); test: In vitro radioligand binding assay, M2
M2, sequence (P08172 whole entry): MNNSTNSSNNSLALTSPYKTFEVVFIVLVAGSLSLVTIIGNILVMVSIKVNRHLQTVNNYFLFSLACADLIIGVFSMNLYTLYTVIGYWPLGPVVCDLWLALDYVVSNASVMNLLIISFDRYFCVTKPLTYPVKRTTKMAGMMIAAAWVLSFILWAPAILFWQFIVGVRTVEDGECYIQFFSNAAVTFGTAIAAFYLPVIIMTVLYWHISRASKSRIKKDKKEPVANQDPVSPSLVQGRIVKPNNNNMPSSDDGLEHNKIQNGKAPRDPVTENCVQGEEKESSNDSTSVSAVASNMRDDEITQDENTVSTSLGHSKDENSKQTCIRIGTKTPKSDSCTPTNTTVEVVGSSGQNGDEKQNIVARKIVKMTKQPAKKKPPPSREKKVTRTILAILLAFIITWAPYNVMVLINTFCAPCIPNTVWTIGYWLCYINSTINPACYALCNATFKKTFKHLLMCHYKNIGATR

M3 receptor = target: T5, M3 receptor (Cavia porcellus, UniProt H0W1Z3); test: Carbachol-induced contraction of the isolated Guinea pig ileum
T5 construct: from tissue; host or cells: isolated guinea pig ileum
T5 sequence (H0W1Z3 1-590): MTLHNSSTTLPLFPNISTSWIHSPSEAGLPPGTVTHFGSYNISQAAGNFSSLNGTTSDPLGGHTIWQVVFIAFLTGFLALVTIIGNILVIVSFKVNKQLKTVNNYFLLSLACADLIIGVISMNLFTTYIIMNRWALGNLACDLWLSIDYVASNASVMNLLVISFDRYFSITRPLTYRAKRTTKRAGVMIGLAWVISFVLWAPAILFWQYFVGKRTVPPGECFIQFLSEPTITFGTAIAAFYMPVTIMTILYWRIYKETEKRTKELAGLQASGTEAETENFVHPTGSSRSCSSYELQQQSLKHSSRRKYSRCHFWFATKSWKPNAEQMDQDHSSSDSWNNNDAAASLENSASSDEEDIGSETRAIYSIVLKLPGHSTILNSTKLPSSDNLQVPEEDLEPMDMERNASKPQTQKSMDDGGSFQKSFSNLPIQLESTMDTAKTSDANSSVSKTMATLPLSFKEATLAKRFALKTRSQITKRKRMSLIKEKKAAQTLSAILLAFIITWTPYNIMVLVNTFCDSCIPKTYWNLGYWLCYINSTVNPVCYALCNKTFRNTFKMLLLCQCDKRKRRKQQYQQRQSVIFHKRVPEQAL

Dopamine (DA) uptake = Dopamine (DA) uptake (Rattus norvegicus, UniProt P23977); test: biochemical
Dopamine (DA) uptake, sequence (P23977 whole entry): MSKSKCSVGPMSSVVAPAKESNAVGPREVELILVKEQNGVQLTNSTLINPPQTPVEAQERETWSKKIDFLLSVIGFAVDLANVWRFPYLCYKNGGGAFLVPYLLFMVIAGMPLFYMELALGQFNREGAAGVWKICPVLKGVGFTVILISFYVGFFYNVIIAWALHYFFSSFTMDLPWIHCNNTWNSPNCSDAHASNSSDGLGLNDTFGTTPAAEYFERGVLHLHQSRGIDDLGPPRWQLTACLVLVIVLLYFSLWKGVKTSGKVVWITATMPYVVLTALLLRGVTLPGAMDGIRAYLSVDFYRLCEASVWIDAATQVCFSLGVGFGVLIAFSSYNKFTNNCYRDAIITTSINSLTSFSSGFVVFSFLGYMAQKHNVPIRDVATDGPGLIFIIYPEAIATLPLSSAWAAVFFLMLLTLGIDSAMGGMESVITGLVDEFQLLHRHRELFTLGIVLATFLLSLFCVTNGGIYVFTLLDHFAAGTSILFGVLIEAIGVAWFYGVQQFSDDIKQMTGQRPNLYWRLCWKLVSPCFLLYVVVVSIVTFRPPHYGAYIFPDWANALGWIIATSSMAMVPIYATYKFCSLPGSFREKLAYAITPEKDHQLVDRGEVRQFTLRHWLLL

[6] = target: T6, Norepinephrine (NE) uptake (Rattus norvegicus, UniProt Q63380); test: Functional uptake of radiolabeled NE into synaptosomes from rat hypothalamus; type: biochemical
T6 construct: from tissue; host or cells: synaptosomes from rat hypothalamus
T6 sequence (Q63380 1-617): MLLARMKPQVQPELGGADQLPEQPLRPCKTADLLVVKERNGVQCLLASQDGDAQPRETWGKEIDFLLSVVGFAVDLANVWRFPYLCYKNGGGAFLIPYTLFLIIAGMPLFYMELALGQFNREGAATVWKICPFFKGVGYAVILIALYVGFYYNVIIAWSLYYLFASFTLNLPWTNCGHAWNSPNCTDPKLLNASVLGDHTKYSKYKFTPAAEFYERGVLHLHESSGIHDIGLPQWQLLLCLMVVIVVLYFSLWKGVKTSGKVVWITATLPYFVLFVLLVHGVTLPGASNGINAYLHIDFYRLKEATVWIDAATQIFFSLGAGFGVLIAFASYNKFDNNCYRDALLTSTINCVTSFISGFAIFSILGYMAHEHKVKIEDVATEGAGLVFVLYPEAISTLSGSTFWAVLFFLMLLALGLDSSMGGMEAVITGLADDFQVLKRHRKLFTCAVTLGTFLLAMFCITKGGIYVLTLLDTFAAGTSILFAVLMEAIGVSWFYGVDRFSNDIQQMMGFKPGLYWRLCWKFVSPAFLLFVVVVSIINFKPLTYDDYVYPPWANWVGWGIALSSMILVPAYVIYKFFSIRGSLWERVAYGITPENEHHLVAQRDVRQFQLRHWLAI
Method: The 5-HT and NE assays were performed essentially as outlined in Perovic S. & Müller W. E. G., Arzneim.-Forsch.

DA transporter = target: T7, DA transporter (Homo sapiens, UniProt Q01959); test: Radioligand binding assay, DA transporter ([3H]GBR 12935 displacement); conditions: human recombinant; [3H]GBR 12935 0.5 nM; read-out: Ki, Dopamine (DA) transporter
T7 construct: expressed in transfected cells
Method: as §1

Na^+ Channel Site 2 = test: In vitro radioligand binding assay, Na+ channel site 2
Beagle dogs = test: Cardiovascular safety study in conscious telemetered dogs; type: in vivo; conditions: single oral doses 0.5, 1.5 and 5 mg/kg
Method: There were four animals/compound and each animal within the treatment group was exposed to the three doses (plus a empty capsule control), in a dose ramp-up manner with a minimum of 72 hours between doses.

[7] = 5 mg/kg p.o. 60 min before the test
[8] = 10 mg/kg p.o. 60 min before the test
[9] = 15 mg/kg p.o. 60 min before the test

N[C@@H]1CC[C@@H](c2ccc(Cl)c(Cl)c2)c2ccccc21 [Compound P, (1R,4S)-trans 4-(3,4-dichlorophenyl)-1,2,3,4-tetrahydro-1-napthalenamine]
Ki (NE transporter): 20 nM
IC50 [1]: 15.6 nM
Number of Flinches, Acute Phase (Mean ± SEM) (rats [2]; 5 mg/kg PO): 194 ± 33
Number of Flinches, Late Phase (Mean ± SEM) (rats [2]; 5 mg/kg PO): 1263 ± 181
Number of Flinches, Acute Phase (Mean ± SEM) (rats [2]; 10 mg/kg PO): 143 ± 27
Number of Flinches, Late Phase (Mean ± SEM) (rats [2]; 10 mg/kg PO): 1679 ± 163
Number of Flinches, Acute Phase (Mean ± SEM) (rats [2]; 15 mg/kg PO): 212 ± 40
Number of Flinches, Late Phase (Mean ± SEM) (rats [2]; 15 mg/kg PO): 2236 ± 153
Ki [3]: 1000 nM
Ki (5-HT2A): 720 nM
Ki (5-HT1A): 1100 nM
IC50 [4]: 12.9 nM
Ki (5-HT2C): 5100 nM
Ki (5-HT1B): 1000 nM
IC50 (hERG channel): 800 nM
NUMBER OF FLINCHES (20 to 35 min after formalin), mean ± s.e.m. (rats [5]; [7]): 89.0 ± 18.4NS
NUMBER OF FLINCHES, % change from control (rats [5]; [7]): 0%
NUMBER OF FLINCHES (20 to 35 min after formalin), mean ± s.e.m. (rats [5]; [8]): 76.4 ± 15.2NS
NUMBER OF FLINCHES, % change from control (rats [5]; [8]): −15%
NUMBER OF FLINCHES (20 to 35 min after formalin), mean ± s.e.m. (rats [5]; [9]): 44.6 ± 13.6
NUMBER OF FLINCHES, % change from control (rats [5]; [9]): −50%
Ki (M2): 5000 nM
IC50 (M3 receptor; duplicate samples, read-out: IC50 for inhibition of carbachol-induced contraction of the Guinea Pig ileum): 9000 nM
M3 agonist effect on isolated Guinea pig ileum (M3 receptor; graded concentrations, compound alone): no an M3 agonist
IC50 (Dopamine (DA) uptake): 6.4 nM
IC50 [6]: 9.6 nM
Ki (DA transporter): 16 nM
Ki (Na^+ Channel Site 2): 1000 nM
effect on heart rate, blood pressure or ECG parameters (including QTc) (Beagle dogs): no effect
